Assay results taken from US20180098969A1, “HODGKIN LYMPHOMA THERAPY” (Purdue Pharmaceutical Products L.P., priority 2016, published 2018).

Legend:
[1] = system: relapsed-refractory Hodgkin lymphoma; conditions: in vivo; cited from earlier work
[2] = system: non-resistant L1236 Hodgkin lymphoma cell lines; test: Viable cell count and IC50, non-resistant lines; format: cell-based, human; conditions: FIG. 6B
Method: (b) The bendamustine-resistant Hodgkin lymphoma cell line L1236-R100, non-resistant L1236 Hodgkin lymphoma cell line cultured in DMSO L1236/DMSO and L1236 was cultured in the presence of EDO-S101 dissolved in DMSO at concentrations of 0.78 μM, 1.56 μM, 3.12 μM, 6.25 μM and 12.5 μM. Control cells were cultured in the same final concentration of DMSO. The number of viable cells was assessed at 24, 48 and 72 hours through a Countess™ automated cell counter (Invitrogen), each experiment being repeated three times and the results given being the mean of the three results ±SD.

Structure (SMILES): Cn1c(CCCC(=O)O)nc2cc(N(CCCl)CCCl)ccc21 [bendamustine]
- relapsed/refractory Hodgkin lymphoma patients resistant [1]: about 40%
- IC50 [2]: high IC50 values
